The values that follow come from patent US11147790B2, “Treatment of cutaneous disorders” (Verrica Pharmaceuticals Inc., priority 2017, dated 2021).

Values joined by “and” are separate entries in the source; they are usually repeats but may differ in a detail not shown here. Equal entries are not always repeated.

The series in a line: Phase II clinical trial, systemic exposure evaluation (plasma concentration of cantharidin) after topical application to Molluscum contagiosum lesions. In kind it is in vivo, human. Here is the method:
This example describes pharmacokinetic results from a Phase II clinical trial for the treatment of skin lesion resulting from Molluscum contagiosum. Patients received administrations of the cantharidin composition in Table 9 to Molluscum contagiosum lesions every 21 days for a maximum of 4 sessions or until complete clearance. Blood samples for systemic exposure evaluation were collected on Day 1, prior to the drug application, and 2 (+30 minutes), 6 (+1 hour) and 24 (±3 hours) hours post-application. The average age of the subjects was 7±3.5 years. The average body weight of the subjects was 58±34.6 lb. The average number of lesions per subject was 43.7±24.2.
The plasma concentration of cantharidin for all subjects was less than 3.3 ng/ml at all times sampled.

Turning to `C[C@@]12C(=O)OC(=O)[C@]1(C)[C@H]1CC[C@@H]2O1` [cantharidin], the “plasma concentration of cantharidin for all subjects at all times sampled” value (all seventeen subjects, 2, 6 and 24 hours post-application, composition of Table 9, topical) is on record as “less than 3.3 ng/ml”. Besides, the “Exposure” value (plasma cantharidin per individual subject, cantharidin composition of Table 9 applied topically to Molluscum contagiosum lesions, blood collected Day 1 at 2, 6 and 24 hours post-application, lower limit of quantification 2.5 ng/ml) is <2.5 ng/ml (16×) and 3.3 ng/ml. For the setting “subjects as young as 2 years old, having over 100 lesions, having genital lesions, with as many as 2.26 lesions per lb, LLOQ 2.5 ng/ml, only one of seventeen subjects above LLOQ”, the “plasma concentration of cantharidin below the lower limit of quantification” value is less than 2.5 ng/mL.
